Laboratory results as given in PubChem BioAssay AID388 (SGCOxCompounds, 2006).

The compounds below were run against 15-hydroxyprostaglandin dehydrogenase [NAD(+)] (Homo sapiens) (UniProt P15428) (assay: ligand-induced stabilization of human HPGD – biophysical, DSF, SYPRO orange, purified protein (AID 388)). Settings: at 10 µM, buffer 10 mM HEPES, pH 7.5, NaCl 150 mM, NADH 40 µM, hits give high values.
15-hydroxyprostaglandin dehydrogenase [NAD(+)] (Homo sapiens), sequence (P15428 whole entry, looked up): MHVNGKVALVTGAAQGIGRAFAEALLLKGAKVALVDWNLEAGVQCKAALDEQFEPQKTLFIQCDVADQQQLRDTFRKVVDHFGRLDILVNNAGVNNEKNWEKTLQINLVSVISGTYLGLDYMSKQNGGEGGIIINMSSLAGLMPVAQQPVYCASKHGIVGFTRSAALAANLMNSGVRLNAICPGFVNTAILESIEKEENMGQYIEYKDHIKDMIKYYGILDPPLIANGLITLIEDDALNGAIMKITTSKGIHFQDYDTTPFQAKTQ

Tm shift [Celsius] | SMILES
2.5 | CN(CCOc1ccc(CC2SC(=O)NC2=O)cc1)c1ccccn1 (stereo unspecified)

Same assay, conditions: at 10 µM, buffer 10 mM HEPES, pH 7.5, NaCl 150 mM, hits give high values

Tm shift [Celsius] | SMILES
2.25 | C[C@@]1(c2ccc(O)cc2)CC(=O)c2c(O)cc(O)cc2O1
2.12 | O=c1c(-c2ccc(O)cc2)coc2cc(O)cc(O)c12
3.1 | O=C1CC(c2ccc(O)cc2)Oc2cc(O)cc(O)c21 (stereo unspecified)
2.9 | O=c1cc(-c2ccccc2)oc2cc(O)c(O)c(O)c12
2.2 | CCc1nnc(NS(=O)(=O)c2ccc(NC(=O)c3ccc(Cl)cc3Cl)cc2)s1
2.1 | O=C(O)c1cccnc1Nc1cccc(C(F)(F)F)c1
2.1 | COc1ccc2c(c1)c(CC(=O)O)c(C)n2C(=O)c1ccc(Cl)cc1

Second part, the compound before the results:

SMILES | Tm shift [Celsius]
O=c1cc(-c2ccc(O)c(O)c2)oc2cc(O)cc(O)c12 | 2.19
CC1=CC(=O)C=C(C)C1=O | 6.05
O=C1NC(=O)c2c1c1c3ccccc3[nH]c1c1[nH]c3cc(Br)ccc3c21 | 2.11
CCc1ccc(CCOc2ccc(CC3SC(=O)CC3=O)cc2)nc1 (stereo unspecified) | 2.28
COc1cc([C@@H]2Oc3cc([C@@H]4Oc5cc(O)cc(O)c5C(=O)[C@H]4C)ccc3O[C@H]2CO)ccc1O | 2.4
CCc1nnc(NS(=O)(=O)c2ccc(NC(=O)/C=C/c3ccc(F)cc3)cc2)s1 | 2.9
CC1(C)[C@@H](OC(=O)CCC(=O)O)CC[C@]2(C)[C@H]3C(=O)C=C4[C@@H]5C[C@@](C)(C(=O)O)CC[C@]5(C)CC[C@@]4(C)[C@]3(C)CC[C@@H]12 | 2.35
Cc1c(O)cc(O)c2c1OC(c1ccc(O)c(O)c1)C(=O)C2=O (stereo unspecified) | 2.5
